# Entries after “also recorded” stand apart in the source; their conditions may differ.
# Tests used:
# [1] = tested on: Matrix Metalloproteinase-9 (MMP-9) mRNA; experiment: MMP-9 mRNA in E. coli-treated HBE cells (dysbiosis model of lung epithelial cells), qRT-PCR; type: cell-based, human; details: 4 hours at 37° C.
# Procedure: In FIG. 2, human primary epithelial (HBE) cells were seeded on a 6 well plate with 4×10^5 cells in each well. 16 hours later, the medium was changed to fresh DULBECCO'S Modified Eagle Medium/Nutrient Mixture F-12 (DMEM/F12) without antibiotic, and E. coli was added to the cells at a final concentration of 5.0×10^7 E. coli cells/ml. L(+) Lactic acid was added together with E. coli at a final lactic acid concentration of 5 mM, 10 mM, or 20 mM. The cells were incubated at 37° C. for 4 hours and then harvested with QIAZOL reagent. RNA was extracted according to the QIAZOL protocol. The level of Matrix Metalloproteinase-9 (MMP-9) mRNA was measured by quantitative real-time PCR (qRT-PCR). In FIG. 5, human bronchial epithelial (HBE) cells were seeded on a 6 well plate with 4×10^5 cells in each well. 16 hours later, the medium was changed to fresh DULBECCO'S Modified Eagle Medium/Nutrient Mixture F-12 (DMEM/F12) without antibiotic, and E. coli was added to the cells at a final concentration of 5.0×10^7 E. coli cells/ml. D(−) Lactic acid was added together with E. coli at a final lactic acid concentration of 0.25 ug/mL, 0.5 ug/mL, or 2 μg/mL. The cells were incubated at 37° C. for 4 hours and then harvested with QIAZOL reagent. RNA was extracted according to the QIAZOL protocol. The level of Matrix Metalloproteinase-9 (MMP-9) mRNA was measured by quantitative real-time PCR (qRT-PCR).
# [2] = tested on: Matrix Metalloproteinase-9 (MMP-9) mRNA; experiment: MMP-9 mRNA in Caco-2 intestinal epithelial cells inoculated with E. coli, qRT-PCR; type: cell-based, human; details: Caco-2 cells inoculated with E. coli; L(+) lactic acid 1.5 mM, 3 mM or 6 mM; 4 hours at 37° C.
# Procedure: In FIG. 3, human intestinal epithelial cells (IECs) from the Caco-2 cell line were seeded on a 6 well plate with 4×10^5 cells in each well. 16 hours later, the medium was changed to fresh DULBECCO'S Modified Eagle Medium/Nutrient Mixture F-12 (DMEM/F12) without antibiotic, and E. coli was added to the cells at a final concentration of 5.0×10^7 E. coli cells/ml. L(+) Lactic acid was added together with E. coli at a final lactic acid concentration of 1.5 mM, 3 mM, or 6 mM. The cells were incubated at 37° C. for 4 hours and then harvested with QIAZOL reagent. RNA was extracted according to the QIAZOL protocol. The level of Matrix Metalloproteinase-9 (MMP-9) mRNA was measured by quantitative real-time PCR (qRT-PCR).
# [3] = tested on: MMP-9 mRNA; experiment: MMP-9 mRNA in A549 NSCLC adenocarcinoma cells inoculated with E. coli, real-time qPCR; type: cell-based; details: 0.25 μg to 4 ug L-LA, 4 hours at 37° C.
# Procedure: In FIG. 4, 2×10^5 A549 cells were seeded in 500 μL growth medium per each well of a 24-well plate. Cells were treated with: (1) 2 uL PBS (control), (2) 5×10^8 E. coli cells (E. coli), (3) or 5×10*8 cells E. coli with 0.25 ug, 0.5 ug, 1 ug, 2 ug, or 4 ug L-lactic acid. The cells were incubated for 4 hours at 37° C. Cells were harvested, RNA was extracted with an RNA extraction kit, the concentration of total RNA was measured, cDNA was obtained using a High-Capacity cDNA Reverse Transcription Kit, and then a TAQMAN real-time qPCR protocol was performed on the cDNA.
# [4] = pure water; cited from earlier work
molecule,measurement,setting,value
C[C@@H](O)C(=O)O [D-lactic acid],MMP-9 mRNA levels,"[1]; HBE cells inoculated with E. coli, 0.25 μg to 2 ug D-LA",no statistical difference
C[C@H](O)C(=O)O [L-lactic acid],MMP-9 mRNA levels,"[1]; HBE cells treated with E. coli, L(+) lactic acid 5 mM, 10 mM or 20 mM",MMP-9 reduction; also recorded: decreased
same,MMP-9 mRNA levels,[2],decreased
same,MMP-9 mRNA levels,[3],decreased
Polyoxyethylene (20) sorbitan monooleate [polysorbate 80],critical micelle concentration,[4],0.012 mM

# — patent US20250041214A1, “INHALABLE OR INGESTIBLE LACTIC ACID COMPOSITIONS FOR THE TREATMENT OF CHRONIC LUNG DISEASE” (Alveolus Bio, Inc., priority 2021, published 2025)
